Assay results taken from patent publication US20040191811A1, “Methods for measuring levels of uridine-diphosphate-N-acetylglucosamine and activity of inhibitors thereof” (priority 2002, published 2004).
Read-outs that look alike come from different tables or passages of the source.

How the values were obtained:
GFAT-alpha = target: T1, GFAT-alpha (Homo sapiens, UniProt Q06210); assay: GFAT-alpha inhibition, microtiter plate glucosamine 6-phosphate assay; type: biochemical; settings: enzyme expressed in SF9 insect cells; glutamine 10 mM, fructose 6-phosphate 10 mM; 60 minutes at 37° C.
T1 construct: made in house; host or cells: SF9 insect cells (sonicated, centrifuged cell extract, not purified)
T1 sequence (Q06210 1-681 isoform Q06210-2): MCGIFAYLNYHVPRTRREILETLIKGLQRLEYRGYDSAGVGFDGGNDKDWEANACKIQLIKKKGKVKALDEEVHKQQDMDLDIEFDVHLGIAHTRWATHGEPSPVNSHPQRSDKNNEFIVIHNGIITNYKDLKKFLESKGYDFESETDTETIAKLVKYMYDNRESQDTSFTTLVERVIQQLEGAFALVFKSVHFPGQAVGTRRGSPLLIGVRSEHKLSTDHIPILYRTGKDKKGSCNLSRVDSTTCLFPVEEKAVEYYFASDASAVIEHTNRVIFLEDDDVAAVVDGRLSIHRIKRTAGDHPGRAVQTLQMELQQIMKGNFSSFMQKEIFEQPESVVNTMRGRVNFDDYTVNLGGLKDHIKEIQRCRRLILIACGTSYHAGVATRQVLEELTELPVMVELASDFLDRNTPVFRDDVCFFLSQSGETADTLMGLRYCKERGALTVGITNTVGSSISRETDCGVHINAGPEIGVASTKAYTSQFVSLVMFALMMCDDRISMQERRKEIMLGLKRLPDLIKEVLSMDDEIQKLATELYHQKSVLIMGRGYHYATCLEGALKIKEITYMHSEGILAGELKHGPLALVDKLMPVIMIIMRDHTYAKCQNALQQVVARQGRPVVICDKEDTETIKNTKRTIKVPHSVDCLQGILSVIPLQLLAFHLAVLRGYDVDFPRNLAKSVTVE
Protocol: Enzyme preparation. GFAT-alpha (GenBank Accession No. M90516) and GFAT-beta (Accession No. AB016789) are cloned into pET12 and pEF-BOS C vectors (New England BioLabs) for transfection into SF9 and Hi5 insect cells, COS, type 293 cells, and E.coli. Endogenous activity for each cell line was also measured in non-transfected cells. The enzymes are expressed in each cell line by growing in large 24×24 cm plates and harvesting 20 hours after transfection. The media is removed and the plates are washed in 15 ml PBS. 1.5 ml of a lysis buffer (PBS 1×, KCl 50 mM, EDTA 10 mM, with protease inhibitors leupeptin 10 ug/ml, PMSF 20 ug/ml, A-protinin 30 ug/ml, and pepstatin 10 ug/ml) is added to each plate and the cells are removed using a large plastic cell scraper. […] The cell #/lysis volume is about 4×10^7cell/ml. The suspension is sonicated on ice (Branson sonicator setting 2.5 to 3) for 15 seconds using a microtip. The sonicated cell extracts are stored in microfuge tubes at −80° C. Before use, the extracts are centrifuged at 15000×g for 5 minutes at 4° C. Each enzyme preparation is titrated to determine the volume that gives between 20 to 30 umoles of glucosamine 6-phosphate in a reaction mixture in a 60-minute incubation at 37° C. (FIGS. 1A and 1B).
Stimulation of GFAT activity. […] For most testing, a 60-minute incubation at 37° C. is carried out in 96 well microtiter plates. To give the best heat transfer the plates are sealed with a Costar plate sealer and floated on a 37° C. water bath. Air bubbles are removed from the bottom of the plate to ensure proper heat transfer to all wells. The 100 μl reaction volume consists of glutamine 10 mM, fructose 6-phosphate 10 mM, PBS 1×, EDTA 5 mM, DTT 1 mM and the enzyme preparation. A mixture of the incubation reagents is kept on ice and the enzyme is added to the mixture just before addition to the plate. Additional incubation mixture is kept on ice to add to standard and control samples. […] If test agents are to be used, 10 μl is added to the appropriate wells and the vehicle is added to the control wells before addition of the incubation mixture. […] A concentration range of 2.5 to 30 umoles is in the linear portion of the curve and covers the quantity of glucosamine 6-phosphate produced under the incubation conditions (FIG. 4). The cold mixture is added to the standard sample wells and the glucosamine 6-phosphate is then measured.
Measurement of glucosamine 6-phosphate The reaction is started by adding the incubation mixture to the appropriate wells in a microtiter plate and placing the plate on a 37° C. water bath. […] The acetylated glucosamine is measured by the Morgan and Elson color reaction (Morgan. W. T. J. & Elson, L. A. (1934).Biochem. J. 28, 988). […]

GFAT-beta = target: T2, GFAT-beta (Homo sapiens, UniProt O94808); assay: GFAT-beta inhibition, microtiter plate glucosamine 6-phosphate assay; type: biochemical
T2 construct: made in house; host or cells: SF9 insect cells (sonicated, centrifuged cell extract, not purified)
T2 sequence (O94808 whole entry): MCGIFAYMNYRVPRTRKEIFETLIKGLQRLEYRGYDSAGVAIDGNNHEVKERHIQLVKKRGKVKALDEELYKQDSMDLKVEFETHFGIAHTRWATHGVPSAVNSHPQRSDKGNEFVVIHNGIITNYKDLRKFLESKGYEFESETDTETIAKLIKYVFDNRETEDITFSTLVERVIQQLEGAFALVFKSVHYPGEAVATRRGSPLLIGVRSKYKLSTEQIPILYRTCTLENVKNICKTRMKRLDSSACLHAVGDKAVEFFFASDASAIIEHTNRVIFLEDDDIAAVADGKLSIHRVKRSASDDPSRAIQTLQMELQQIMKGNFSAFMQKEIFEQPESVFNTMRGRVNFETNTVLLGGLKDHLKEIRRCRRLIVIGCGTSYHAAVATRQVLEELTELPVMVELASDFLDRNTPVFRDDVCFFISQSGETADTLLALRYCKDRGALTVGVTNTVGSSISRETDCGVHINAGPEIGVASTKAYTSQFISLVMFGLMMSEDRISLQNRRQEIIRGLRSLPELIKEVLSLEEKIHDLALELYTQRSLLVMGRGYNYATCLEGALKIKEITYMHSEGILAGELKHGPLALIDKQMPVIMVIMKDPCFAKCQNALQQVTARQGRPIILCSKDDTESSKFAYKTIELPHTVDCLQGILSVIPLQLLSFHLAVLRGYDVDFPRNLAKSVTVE
Protocol: Stimulation of GFAT activity. […] For most testing, a 60-minute incubation at 37° C. is carried out in 96 well microtiter plates. To give the best heat transfer the plates are sealed with a Costar plate sealer and floated on a 37° C. water bath. Air bubbles are removed from the bottom of the plate to ensure proper heat transfer to all wells. […] A mixture of the incubation reagents is kept on ice and the enzyme is added to the mixture just before addition to the plate. Additional incubation mixture is kept on ice to add to standard and control samples. […] If test agents are to be used, 10 μl is added to the appropriate wells and the vehicle is added to the control wells before addition of the incubation mixture. 15 wells are left blank for addition of control and standard glucosamine 6-phosphate samples. After the incubation, 10 μl of the standards made up in the appropriate vehicle (DMSO) are added to the appropriate wells.

[1] = enzyme expressed in SF9 insect cells, glutamine 10 mM, fructose 6-phosphate 10 mM, 60 minutes at 37° C., read-out: IC50 for inhibition of GFAT-beta

IC50 (GFAT-beta; [1]) [µM]	Compound	IC50 (GFAT-alpha) [µM]	IC50 (GFAT-beta) [µM]	times as much required to inhibit GFAT-beta compared with GFAT-alpha (GFAT-beta; ratio of IC50 GFAT-beta to IC50 GFAT-alpha)
2.3	COC(=O)/C=C/C(=O)NC[C@H](N)C(=O)O [FMDP, N3-(-4-methoxyflumaroyl)-L-2,3-diaminopropanoic acid]	4		
	[N-]=[N+]=CC(=O)CC[C@H](N)C(=O)O [DON, 6-diazo-5-oxo-L-norleucine]	18	18	
0.27	N[C@@H](CNC(=O)CBr)C(=O)O [N3-(bromoacetyl)-L-2,3-diaminopropanoic acid]	0.38		

Compound	IC50 (GFAT-beta; [1]) [µM]	IC50 (GFAT-alpha) [µM]	IC50 (GFAT-beta) [µM]	times as much required to inhibit GFAT-beta compared with GFAT-alpha (GFAT-beta; ratio of IC50 GFAT-beta to IC50 GFAT-alpha)
uridine-diphosphate-N-acetylglucosamine [UDP-N-acetylglucosamine]	100	8		more than 12 times
